Source: ChEMBL document CHEMBL4002623, “Synthesis and in vitro activity of dicationic indolyl diphenyl ethers as novel potent antibiotic agents against drug-resistant bacteria” (Bioorg Med Chem Lett, 2017)
Converted amounts (≈) assume the structure as drawn.

Tests used:
[1] = test system: Serratia marcescens; assay: Antibacterial activity against Serratia marcescens 41002 by agar dilution method; format: functional
[2] = test system: Klebsiella aerogenes; assay: Antibacterial activity against Enterobacter aerogenes 45102 by agar dilution method; format: functional
[3] = test system: Staphylococcus aureus; assay: Antibacterial activity against methicillin-sensitive Staphylococcus aureus 15 by agar dilution method; format: functional
[4] = test system: Pseudomonas aeruginosa; assay: Antibacterial activity against Pseudomonas aeruginosa 09-14 by agar dilution method; format: functional
[5] = test system: Escherichia coli; assay: Antibacterial activity against extended-spectrum beta-lactamase-negative Escherichia coli 1515 by agar dilution method; format: functional
[6] = test system: Escherichia coli; assay: Antibacterial activity against extended-spectrum beta-lactamase-negative Escherichia coli ATCC 25922 by agar dilution method; format: functional
[7] = test system: Staphylococcus epidermidis; assay: Antibacterial activity against methicillin-resistant Staphylococcus epidermidis 09-3 by agar dilution method; format: functional
[8] = test system: Klebsiella pneumoniae; assay: Antibacterial activity against extended-spectrum beta-lactamase-positive Klebsiella pneumoniae ATCC 700603 by agar dilution method; format: functional
[9] = test system: Acinetobacter calcoaceticus; assay: Antibacterial activity against Acinetobacter calcoaceticus ATCC 19606 by agar dilution method; format: functional
[10] = test system: Escherichia coli; assay: Antibacterial activity against extended-spectrum beta-lactamase-positive Escherichia coli 09-1 by agar dilution method; format: functional
[11] = test system: Staphylococcus epidermidis; assay: Antibacterial activity against methicillin-sensitive Staphylococcus epidermidis 09-9 by agar dilution method; format: functional
[12] = test system: Klebsiella pneumoniae; assay: Antibacterial activity against extended-spectrum beta-lactamase-negative Klebsiella pneumoniae 7 by agar dilution method; format: functional
[13] = test system: Enterococcus faecalis; assay: Antibacterial activity against vancomycin-resistant Enterococcus faecalis ATCC 51299 by agar dilution method; format: functional
[14] = test system: Enterococcus faecalis; assay: Antibacterial activity against vancomycin-resistant Enterococcus faecalis 09-9 by agar dilution method; format: functional
[15] = test system: Klebsiella pneumoniae; assay: Antibacterial activity against Klebsiella pneumoniae ATCC BAA-2146 expressing NDM-1 by agar dilution method; format: functional
[16] = test system: Staphylococcus aureus; assay: Antibacterial activity against methicillin-resistant Staphylococcus aureus 09-13 by agar dilution method; format: functional
[17] = test system: Enterobacter cloacae; assay: Antibacterial activity against Enterobacter cloacae 45301 by agar dilution method; format: functional
[18] = Cytotoxicity against HEK293T cells after 48 hrs by MTS assay; format: cell-based, HEK-293T; conditions: human
[19] = test system: Enterococcus faecalis; assay: Antibacterial activity against vancomycin-sensitive Enterococcus faecalis 09-8 by agar dilution method; format: functional
[20] = test system: Citrobacter freundii; assay: Antibacterial activity against Citrobacter freundii ATCC 43864 by agar dilution method; format: functional
[21] = test system: Salmonella typhi; assay: Antibacterial activity against Salmonella typhi H901 by agar dilution method; format: functional, Salmonella enterica subsp. enterica serovar Typhi; conditions: Salmonella enterica
[22] = test system: Providencia rettgeri; assay: Antibacterial activity against Providencia rettgeri ATCC 31052 by agar dilution method; format: functional
[23] = test system: Staphylococcus epidermidis; assay: Antibacterial activity against methicillin-sensitive Staphylococcus epidermidis ATCC 12228 by agar dilution method; format: functional
[24] = test system: Escherichia coli; assay: Antibacterial activity against extended-spectrum beta-lactamase-negative Escherichia coli 09-20 by agar dilution method; format: functional
[25] = test system: Enterococcus faecium; assay: Antibacterial activity against vancomycin-resistant Enterococcus faecium 05-8 by agar dilution method; format: functional
[26] = test system: Proteus vulgaris; assay: Antibacterial activity against Proteus vulgaris ATCC 29905 by agar dilution method; format: functional
[27] = test system: Pseudomonas aeruginosa; assay: Antibacterial activity against Pseudomonas aeruginosa ATCC 27853 by agar dilution method; format: functional
[28] = test system: Klebsiella pneumoniae; assay: Antibacterial activity against extended-spectrum beta-lactamase-positive Klebsiella pneumoniae 09-25 by agar dilution method; format: functional
[29] = test system: Enterococcus faecalis; assay: Antibacterial activity against vancomycin-sensitive Enterococcus faecalis ATCC 29212 by agar dilution method; format: functional
[30] = test system: Morganella morganii; assay: Antibacterial activity against Morganella morganii ATCC 25830 by agar dilution method; format: functional
[31] = test system: Staphylococcus aureus; assay: Antibacterial activity against methicillin-sensitive Staphylococcus aureus 09-6 by agar dilution method; format: functional
[32] = test system: Staphylococcus aureus; assay: Antibacterial activity against methicillin-sensitive Staphylococcus aureus ATCC 29213 by agar dilution method; format: functional
[33] = test system: Staphylococcus aureus; assay: Antibacterial activity against methicillin-resistant Staphylococcus aureus ATCC 33591 by agar dilution method; format: functional
[34] = test system: Enterococcus faecium; assay: Antibacterial activity against vancomycin-resistant Enterococcus faecium ATCC 700221 by agar dilution method; format: functional
[35] = test system: Proteus mirabilis; assay: Antibacterial activity against Proteus mirabilis 09-1 by agar dilution method; format: functional
[36] = test system: Klebsiella pneumoniae; assay: Antibacterial activity against extended-spectrum beta-lactamase-negative Klebsiella pneumoniae 09-8 by agar dilution method; format: functional
[37] = test system: Pseudomonas aeruginosa; assay: Antibacterial activity against Pseudomonas aeruginosa PAO1 by agar dilution method; format: functional
[38] = test system: Enterococcus faecium; assay: Antibacterial activity against vancomycin-sensitive Enterococcus faecium 09-10 by agar dilution method; format: functional

Row | SMILES | MIC [1] | MIC [2] | MIC [4] | MIC [5] | MIC [6] | MIC [8] | MIC [9] | MIC [10] | MIC [11] | MIC [12] | MIC [15] | MIC [17] | CC50 at 48 h [18] | MIC [19] | MIC [20] | MIC [22] | MIC [23] | MIC [24] | MIC [26] | MIC [27] | other results
1 | CCC(C)NC(=N)c1ccc2cc(-c3ccc(Oc4ccc(-c5cc6ccc(C(=N)NC(C)CC)cc6[nH]5)cc4)cc3)[nH]c2c1 (stereo unspecified) | 64 µg/mL (≈ 107 µM) | 32 µg/mL (≈ 53.6 µM) | 64 µg/mL (≈ 107 µM) | 16 µg/mL (≈ 26.8 µM) | 16 µg/mL (≈ 26.8 µM) | 64 µg/mL (≈ 107 µM) | 64 µg/mL (≈ 107 µM) | 32 µg/mL (≈ 53.6 µM) | 2 µg/mL (≈ 3.35 µM) | 64 µg/mL (≈ 107 µM) | 32 µg/mL (≈ 53.6 µM) | 32 µg/mL (≈ 53.6 µM) | 40.4 µg/mL (≈ 67.7 µM) | 2 µg/mL (≈ 3.35 µM) | 32 µg/mL (≈ 53.6 µM) | 64 µg/mL (≈ 107 µM) | 0.5 µg/mL (≈ 0.838 µM) | 32 µg/mL (≈ 53.6 µM) | 32 µg/mL (≈ 53.6 µM) | 32 µg/mL (≈ 53.6 µM) | MIC [3]: 2 µg/mL (≈ 3.35 µM); MIC [7]: 1 µg/mL (≈ 1.68 µM); MIC [13]: 2 µg/mL (≈ 3.35 µM); MIC [14]: 8 µg/mL (≈ 13.4 µM); MIC [16]: 1 µg/mL (≈ 1.68 µM); MIC [21]: 16 µg/mL (≈ 26.8 µM); MIC [25]: 2 µg/mL (≈ 3.35 µM); MIC [28]: 32 µg/mL (≈ 53.6 µM); MIC [29]: 2 µg/mL (≈ 3.35 µM); MIC [30]: 16 µg/mL (≈ 26.8 µM); MIC [31]: 2 µg/mL (≈ 3.35 µM); MIC [32]: 2 µg/mL (≈ 3.35 µM); MIC [33]: 2 µg/mL (≈ 3.35 µM); MIC [34]: 1 µg/mL (≈ 1.68 µM); MIC [35]: 64 µg/mL (≈ 107 µM); MIC [36]: 16 µg/mL (≈ 26.8 µM); MIC [37]: 64 µg/mL (≈ 107 µM); MIC [38]: 8 µg/mL (≈ 13.4 µM)
2 | CN[C@H](CC(C)C)C(=O)N[C@H]1C(=O)N[C@@H](CC(N)=O)C(=O)N[C@H]2C(=O)N[C@H]3C(=O)N[C@H](C(=O)N[C@H](C(=O)O)c4cc(O)cc(O)c4-c4cc3ccc4O)[C@H](O)c3ccc(c(Cl)c3)Oc3cc2cc(c3O[C@@H]2O[C@H](CO)[C@@H](O)[C@H](O)[C@H]2O[C@H]2C[C@](C)(N)[C@H](O)[C@H](C)O2)Oc2ccc(cc2Cl)[C@H]1O [VANCOMYCIN] |  |  |  |  |  |  |  |  | 0.5 µg/mL (≈ 0.345 µM) |  |  |  |  | 1 µg/mL (≈ 0.69 µM) |  |  | 0.5 µg/mL (≈ 0.345 µM) |  |  |  | MIC [29]: 1 µg/mL (≈ 0.69 µM)
3 | c1cc(-c2cc3ccc(C4=NCCN4)cc3[nH]2)ccc1Oc1ccc(-c2cc3ccc(C4=NCCN4)cc3[nH]2)cc1 | > 128 µg/mL | > 128 µg/mL | > 128 µg/mL | > 128 µg/mL | > 128 µg/mL | > 128 µg/mL | > 128 µg/mL | > 128 µg/mL | 2 µg/mL (≈ 3.73 µM) | > 128 µg/mL | > 128 µg/mL | > 128 µg/mL | 1.7 µg/mL (≈ 3.17 µM) |  | > 128 µg/mL | > 128 µg/mL |  | > 128 µg/mL | > 128 µg/mL | > 128 µg/mL | MIC [3]: 8 µg/mL (≈ 14.9 µM); MIC [28]: > 128 µg/mL; MIC [30]: > 128 µg/mL; MIC [31]: 16 µg/mL (≈ 29.8 µM); MIC [32]: 16 µg/mL (≈ 29.8 µM); MIC [35]: > 128 µg/mL; MIC [36]: > 128 µg/mL; MIC [37]: > 128 µg/mL; MIC [38]: 8 µg/mL (≈ 14.9 µM)
4 | c1cc(-c2cc3ccc(C4=NCCCN4)cc3[nH]2)ccc1Oc1ccc(-c2cc3ccc(C4=NCCCN4)cc3[nH]2)cc1 | 128 µg/mL (≈ 227 µM) | 128 µg/mL (≈ 227 µM) | > 128 µg/mL | 64 µg/mL (≈ 113 µM) | 64 µg/mL (≈ 113 µM) | > 128 µg/mL | > 128 µg/mL | 64 µg/mL (≈ 113 µM) | 1 µg/mL (≈ 1.77 µM) | ≥ 128 µg/mL | 128 µg/mL (≈ 227 µM) | 64 µg/mL (≈ 113 µM) | 43.1 µg/mL (≈ 76.3 µM) | 2 µg/mL (≈ 3.54 µM) | 128 µg/mL (≈ 227 µM) | 128 µg/mL (≈ 227 µM) | 0.25 µg/mL (≈ 0.443 µM) | 128 µg/mL (≈ 227 µM) | 128 µg/mL (≈ 227 µM) | > 128 µg/mL | MIC [28]: ≥ 128 µg/mL; MIC [29]: 4 µg/mL (≈ 7.08 µM); MIC [30]: 32 µg/mL (≈ 56.7 µM); MIC [35]: > 128 µg/mL; MIC [36]: 128 µg/mL (≈ 227 µM); MIC [37]: > 128 µg/mL; MIC [38]: 16 µg/mL (≈ 28.3 µM)
